Consider 65 compounds from publication PMC7529893, “Structural basis for substrate recognition and chemical inhibition of oncogenic MAGE ubiquitin ligases” (Nature Communications, 2020).

Molecules are shown by their SMILES.

This assay concerns the target T1, MAGE-A11:PCF11 interaction (GST-MAGE-A11 and FAM-PCF11_4) (Homo sapiens, UniProt P43364).
T1 construct: GST-MAGE-A11 MHD (human MAGE-A11 MHD amino acid 218-429); made in house; host or cells: E. coli BL21(DE3)
T1 sequence (P43364 218-429): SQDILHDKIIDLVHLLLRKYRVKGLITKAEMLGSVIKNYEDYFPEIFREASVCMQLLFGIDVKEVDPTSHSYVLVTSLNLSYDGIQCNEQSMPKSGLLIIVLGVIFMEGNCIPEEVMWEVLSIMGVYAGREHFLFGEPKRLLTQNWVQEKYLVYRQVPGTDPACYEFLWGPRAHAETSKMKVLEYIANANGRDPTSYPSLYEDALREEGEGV
Put plainly: TR-FRET primary / single point screen at 15 µM. It is filed as binding. The essentials: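 TR-FRET 520/490 nm emission ratio was read after 90 min at room temperature. Wells held 5 nM GST-MAGE-A11, 5 nM Tb-anti-GST, 200 nM FAM-PCF11_4 and 15 µM compound in Tris pH 7.5 buffer with MgCl2, BSA and DTT. %Inhibition was scaled to DMSO and minus-MAGE-A11 controls.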
On the technique in general: Time-resolved FRET reads energy transfer from a long-lived donor to a nearby acceptor.

[1] abbreviates: single point TR-FRET screening of 797 quinoline compounds against MAGE-A11:PCF11.
[2] abbreviates: single point TR-FRET screening of quinoline compounds against MAGE-A11:PCF11, 15 µM.

As to `COc1ccc2ncc(S(=O)(=O)c3ccccc3)c(N3CCN(c4cccc(C)c4C)CC3)c2c1` [SJ000117082], the “percent inhibition (TR-FRET)” value under setting [1] is -241.81.
On to `O=S(=O)(c1ccccc1)c1cnc2ccc(F)cc2c1N1CCN(c2ccc(F)cc2)CC1` [SJ000083980], for which, under setting [1], the “percent inhibition (TR-FRET)” value is recorded as -11.08.
Turning to `CCCN(CCCNc1c2ccc(Cl)cc2nc2ccc(OC)cc12)Cc1cccc([N+](=O)[O-])c1` [SJ000520948], under setting [2], the “percent inhibition (TR-FRET)” value was -10.7413.
With `NC(=O)CC(Nc1c2ccccc2nc2ccccc12)C(=O)O` (centres unmarked) [SJ000044383], the “percent inhibition (TR-FRET)” value under setting [2] amounted to 20.1038.
For the compound `Clc1ccc2c(NCCCN(Cc3ccccc3)Cc3cccs3)ccnc2c1` [SJ000312672], the “percent inhibition (TR-FRET)” value under setting [2] is 4.744.
On to `CCCN(CCCNc1c2ccc(Cl)cc2nc2ccc(OC)cc12)CC1CCOC1` (centres unmarked) [SJ000575149], for which the “percent inhibition (TR-FRET)” value under setting [2] is given as -35.9356.
As to `COc1ccc2nc3cc(Cl)ccc3c(NCCCNCc3cn(C)c4ccccc34)c2c1` [SJ000520987], the “percent inhibition (TR-FRET)” value under setting [1] was -252.354.
For the compound `CCCN(CCCNc1ccnc2cc(C(F)(F)F)ccc12)Cc1cc(OC)ccc1F` [SJ000520480], the “percent inhibition (TR-FRET)” value under setting [2] came to 11.9552.
Regarding `CCCN(CCCNc1ccnc2cc(Cl)ccc12)Cc1sccc1C` [SJ000357439], under setting [2], the “percent inhibition (TR-FRET)” value came out at 19.7269.
In the case of `COc1ccc2nc3cc(Cl)ccc3c(NCCCNCc3ccsc3)c2c1` [SJ000523026], the “percent inhibition (TR-FRET)” value under setting [1] is reported as -353.834.
On the same count and under the same terms, to `Clc1ccc2c(NCCCCN(Cc3ccccc3)CC3CC3)ccnc2c1` [SJ000357485] belongs 18.3422; to `COc1ccc(-c2csc(N3CCN(c4cc(C)nc5ccccc45)CC3)n2)cc1OC` [SJ000114009], -53.4343.
Still for that read-out and setting: to `COc1ccc2nc3cc(Cl)ccc3c(NCCCNCc3cccc4c3OCO4)c2c1` [SJ000520991] belongs -257.115.
For `COc1ccc(F)c(CN(CCCNc2ccnc3cc(Cl)ccc23)Cc2ccccc2)c1` [SJ000520445], the “percent inhibition (TR-FRET)” value under setting [2] was determined as 4.762.
Regarding `CN(C)c1ccc(CN(CCCCNc2ccnc3cc(Cl)ccc23)Cc2ccccc2)cc1` [SJ000522727], under setting [1], the “percent inhibition (TR-FRET)” value is listed as 21.522.
As to `Clc1ccc(Oc2ccc3c(NCCCNCc4ccco4)ccnc3c2)cc1` [SJ000311226], the “percent inhibition (TR-FRET)” value under setting [2] worked out at 37.651.
As for `CCCN(CCCNc1ccnc2cc(C(F)(F)F)ccc12)Cc1nccn1C` [SJ000575170], under setting [2], the “percent inhibition (TR-FRET)” value turned out to be 7.1241.
Regarding `C#CCOCC(O)CN1CCN(c2cc(C(F)(F)F)nc3ccccc23)CC1` (centres unmarked) [SJ000228018], the “percent inhibition (TR-FRET)” value under setting [1] is -9.5157.
On the same count and under the same terms, to `Cc1ccc(S(=O)(=O)c2cnc3ccccc3c2N2CCN(c3ccc(C)cc3C)CC2)cc1` [SJ000117080] belongs 3.172.
On to `CCCN(CCCNc1ccnc2cc(C(F)(F)F)ccc12)CC(C)CC` (centres unmarked) [SJ000523081], for which the “percent inhibition (TR-FRET)” value under setting [2] is listed as 22.2827.
Take `CCCN(CCCCNc1ccnc2cc(Cl)ccc12)Cc1c[nH]c2ccccc12` [SJ000311204]: the “percent inhibition (TR-FRET)” value under setting [1] is given as -3.378.
For `COc1ccc2nc3cc(Cl)ccc3c(NCCCNCc3ccccn3)c2c1` [SJ000523024], under setting [1], the “percent inhibition (TR-FRET)” value was -255.258.
Still for that read-out and setting: to `CN1CCN(c2c(C(=O)c3ccccc3)cnc3ccc(Cl)cc23)CC1` [SJ000247338] belongs -5.573.
With `Cc1ccc(F)cc1CN(CCCNc1ccnc2cc(Cl)ccc12)Cc1ccccc1` [SJ000520458], the “percent inhibition (TR-FRET)” value under setting [2] was 29.7727.
For `Clc1ccc2c(NCCCNCC3CCOC3)ccnc2c1` (centres unmarked) [SJ000521038], under setting [2], the “percent inhibition (TR-FRET)” value is 0.4026.
As to `C#CCOCC(O)CN1CCN(c2cc(C)nc3ccccc23)CC1` (centres unmarked) [SJ000227655], under setting [1], the “percent inhibition (TR-FRET)” value was 6.55.
As for `CCCN(CCCNc1c2ccc(Cl)cc2nc2ccc(OC)cc12)Cc1ccoc1` [SJ000520937], under setting [1], the “percent inhibition (TR-FRET)” value was -394.576.
Still for that read-out and setting: to `COc1ccc(CN(CCCCNc2ccnc3cc(Cl)ccc23)Cc2ccccc2)cc1` [SJ000522724] belongs 6.683.
Regarding `CCCCCCN(CCCNc1ccnc2cc(Cl)ccc12)Cc1ccccc1` [SJ000361189], under setting [2], the “percent inhibition (TR-FRET)” value was -40.7502.
Still for that read-out and setting: as for `CCCN(CCCNc1ccnc2cc(Cl)ccc12)Cc1cc(OC(F)(F)F)ccc1OC` [SJ000523011], the figure is 15.666; as for `Cn1cccc1CNCCCNc1ccnc2cc(Cl)ccc12` [SJ000521019], 18.9568; as for `CCC(CC)CN(CCCNc1ccnc2cc(Cl)ccc12)Cc1ccccc1` [SJ000361172], 22.9132.
Regarding `COc1ccc2nc3cc(Cl)ccc3c(NCCCNCc3ccc(C)o3)c2c1` [SJ000361089], the “percent inhibition (TR-FRET)” value under setting [1] is -229.025.
Take `Clc1ccc2c(NCCCNCc3csc4ccccc34)ccnc2c1` [SJ000521033]: the “percent inhibition (TR-FRET)” value under setting [2] was determined as 33.3803.
Turning to `CCCN(CCCNc1c2ccc(Cl)cc2nc2ccc(OC)cc12)Cc1ccccc1C(=O)O` [SJ000520951], the “percent inhibition (TR-FRET)” value under setting [1] is -258.592.
As for `CCOC(=O)c1cnc2c(Cl)cccc2c1NCCCN1CCOCC1` [SJ000279431], the “percent inhibition (TR-FRET)” value under setting [2] was 4.102.
`Cc1cc(C)c(CN(CCCNc2ccnc3cc(Cl)ccc23)Cc2ccccc2)c(C)c1` [SJ000361169]: the “percent inhibition (TR-FRET)” value under setting [2] is listed as 31.1941.
In the case of `Cn1ccnc1CN(CCCNc1ccnc2cc(Cl)ccc12)Cc1ccccc1` [SJ000520431], the “percent inhibition (TR-FRET)” value under setting [2] was 15.361.
Take `Oc1c(F)cc(F)cc1CN(CCCNc1ccnc2cc(Cl)ccc12)Cc1ccccc1` [SJ000357504]: the “percent inhibition (TR-FRET)” value under setting [2] worked out at 27.6387.
As for `COc1ccc2nc3cc(Cl)ccc3c(NCCCNCc3ccccc3C(F)(F)F)c2c1` [SJ000361095], under setting [1], the “percent inhibition (TR-FRET)” value was -169.468.
Consider `CCOC(=O)c1ccc2ncc(C(=O)OCC)c(NCCCN3CCOCC3)c2c1` [SJ000176583], for which the “percent inhibition (TR-FRET)” value under setting [2] amounted to 11.255.
As for `CCc1ccc2ncc(S(=O)(=O)c3ccc(C)c(C)c3)c(N3CCN(C)CC3)c2c1` [SJ000247332], under setting [1], the “percent inhibition (TR-FRET)” value is 2.973.
Take `COc1ccc(CN(CCCNc2ccnc3cc(Cl)ccc23)Cc2ccccc2)cc1` [SJ000522720]: under setting [2], the “percent inhibition (TR-FRET)” value was determined as 11.7837.
Still for that read-out and setting: to `CCCN(CCCNc1ccnc2cc(Cl)ccc12)Cc1ccc2c(c1)OCO2` [SJ000522753] belongs 18.7467.
As for `Clc1ccc2c(N3CCN(CCCN4CCN(c5ccnc6cc(Cl)ccc56)CC4)CC3)ccnc2c1` [SJ000518980], the “percent inhibition (TR-FRET)” value under setting [1] is -2.9894.
In the case of `CCCN(CCCNc1ccnc2cc(Cl)ccc12)Cc1[nH]cnc1C` [SJ000523010], the “percent inhibition (TR-FRET)” value under setting [2] is recorded as 12.0487.
`CCCN(CCCNc1ccnc2cc(Cl)ccc12)Cc1cnn(C)c1` [SJ000523009]: under setting [2], the “percent inhibition (TR-FRET)” value worked out at 10.0613.
Regarding `CCOC(=O)c1cnc2c(C(F)(F)F)cccc2c1NCCN1CCOCC1` [SJ000281260], the “percent inhibition (TR-FRET)” value under setting [1] is on record as 0.8341.
In the case of `CCCN(CCCNc1ccnc2cc(Cl)ccc12)Cc1ccc(Br)o1` [SJ000311195], the “percent inhibition (TR-FRET)” value under setting [2] turned out to be 14.4758.
On to `CCOC(=O)c1cnc2ccc(OCC)cc2c1NCCCN1CCOCC1` [SJ000279525], for which the “percent inhibition (TR-FRET)” value under setting [2] was 5.532.
Consider `CCc1ccc2ncc(S(=O)(=O)c3ccc(OC)cc3)c(N3CCN(C)CC3)c2c1` [SJ000083954], for which the “percent inhibition (TR-FRET)” value under setting [1] is on record as -5.969.
Take `Cn1cc(CN(CCCNc2ccnc3cc(Cl)ccc23)Cc2ccccc2)c2ccccc21` [SJ000520439]: under setting [2], the “percent inhibition (TR-FRET)” value was -9.311.
Turning to `CCCCCN(CCC)CCCNc1ccnc2cc(C(F)(F)F)ccc12` [SJ000361271], the “percent inhibition (TR-FRET)” value under setting [2] was 30.9303.
For `O=[N+]([O-])c1ccc(CN2CCC(Nc3ccnc4cc(Cl)ccc34)CC2)cc1` [SJ000523096], under setting [1], the “percent inhibition (TR-FRET)” value is given as -4.954.
Turning to `CCCN(CCCNc1c2ccc(Cl)cc2nc2ccc(OC)cc12)Cc1ccc(-c2ccccc2)cc1` [SJ000522740], the “percent inhibition (TR-FRET)” value under setting [2] is -74.0063.
In the case of `CCCN(CCCNc1c2ccc(Cl)cc2nc2ccc(OC)cc12)Cc1cnn(C)c1` [SJ000522980], under setting [1], the “percent inhibition (TR-FRET)” value is recorded as -276.65.
As for `CCCN(CCCNc1c2ccc(Cl)cc2nc2ccc(OC)cc12)Cc1ccc(F)c(F)c1` [SJ000520942], under setting [2], the “percent inhibition (TR-FRET)” value is given as 0.9703.
For `CCCN(CCCNc1ccnc2cc(C(F)(F)F)ccc12)Cc1cc(OC(F)(F)F)ccc1OC` [SJ000520485], the “percent inhibition (TR-FRET)” value under setting [2] is 5.6.
With `CCCNCCCNc1ccnc2cc(C(F)(F)F)ccc12` [SJ000361123], under setting [2], the “percent inhibition (TR-FRET)” value came out at 12.8181.
On the same count and under the same terms, to `CCCN(CCCNc1ccnc2cc(C(F)(F)F)ccc12)Cc1ccc(OC)cc1` [SJ000361273] belongs 22.8956.
For `CCOC(=O)c1cnc2ccc(C)cc2c1NCCN1CCOCC1` [SJ000027268], under setting [1], the “percent inhibition (TR-FRET)” value was -0.3915.
In the case of `FC(F)(F)Oc1cccc(CN(CCCCNc2ccnc3cc(Cl)ccc23)Cc2ccccc2)c1` [SJ000520457], the “percent inhibition (TR-FRET)” value under setting [1] is listed as 33.314.
Regarding `Fc1ccc(-c2ccc3c(NCCCNCc4ccco4)ccnc3c2)cc1` [SJ000311238], the “percent inhibition (TR-FRET)” value under setting [2] amounted to 27.4287.
Take `CCc1ccc2ncc(S(=O)(=O)c3ccccc3)c(N3CCN(CC)CC3)c2c1` [SJ000083957]: the “percent inhibition (TR-FRET)” value under setting [1] is recorded as 3.238.
In the case of `Clc1ccc2c(NCCCN(Cc3ccccc3)Cc3ccc[nH]3)ccnc2c1` [SJ000522717], under setting [2], the “percent inhibition (TR-FRET)” value is reported as 20.4621.
